Here are results for 14 molecules from patent US10821115B2, “Compounds that inhibit Mcl-1 protein” (priority 2017, dated 2020).

The subject of this assay is human multiple myeloma cell line, OPM-2. Briefly: Cell viability assay (OPM-2 10 FBS), CellTiter-Glo. It is filed as cell-based. The method in brief:
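Steps: plate cells at 3000/well in 10% FBS growth medium, add serially diluted compound, incubate 16 h at 37 °C with 5% CO2, add detection reagent and read luminescence after 25 min. A 4-parameter logistic model gives IC50.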

Setting [1] is: read-out: OPM-2 10% FBS IC50 IP, OPM-2 cells, 10% FBS, 16 h incubation.
Setting [2] is: Homo sapiens, OPM-2, 16 h, read-out: OPM-2 10% FBS IC50 IP, OPM-2 cells, 10% FBS, 16 h, CellTiter-Glo.
[3] abbreviates: Homo sapiens, OPM-2, 16 h, read-out: OPM-2 10% FBS IC50 IP, OPM-2 cells, 10% FBS, 16 h incubation.

pIC50: −log10 of the molar value. Read-outs that look alike come from different tables or passages of the source.

Consider `C[C@@H]1[C@@H](C)C/C=C/C(O)(CN2CCN3CCCC[C@@H]3C2)[C@@H]2CC[C@H]2CN2C[C@@]3(CCCc4cc(Cl)ccc43)COc3ccc(cc32)C(=O)NS1(=O)=O` (single isomer, unassigned) [Example 243], for which the pIC50 under setting [1] was 6.97. As for `CO[C@@]1(CC(=O)NCCO)/C=C/C[C@H](C)[C@@H](C)S(=O)(=O)NC(=O)c2ccc3c(c2)N(C[C@@H]2CC[C@H]21)C[C@@]1(CCCc2cc(Cl)ccc21)CO3` [Example 100465, 2-((1S,3′R,6′R,7′S,8′E,11′S,12′R)-6-chloro-7′-methoxy-11′,12′-dimethyl-13′,13′-dioxido-15′-oxo-3,4-dihydro-2H-spiro[naphthalene-1,22′-[20]oxa[13]thia[1,14]diazatetracyclo [14.7.2.0~3,6~.0~19,24~]pentacosa[8,16,18,24]tetraen]-7′-yl)-N-(2-hydroxyethyl)acetamide], the pIC50 under setting [2] is 6.14. Regarding `CO[C@@]1(CN2CCN(CCS(C)(=O)=O)CC2)/C=C/C[C@H](C)[C@@H](C)S(=O)(=O)NC(=O)c2ccc3c(c2)N(C[C@@H]2CC[C@H]21)C[C@@]1(CCCc2cc(Cl)ccc21)CO3` [Example 81], the pIC50 under setting [3] is 6.95.

As for `CCO[C@]1(CN2CCN(C3COC3)CC2)/C=C/C[C@H](C)[C@@H](C)S(=O)(=O)NC(=O)c2ccc3c(c2)N(C[C@@H]2CC[C@H]21)C[C@@]1(CCCc2cc(Cl)ccc21)CO3` [Example 2, (1 S,3′R,6′R,7′R,8′E,11′S,12′R)-6-chloro-7′-ethoxy-11′,12′-dimethyl-7′-((4-(3-oxetanyl)-1-piperazinyl)methyl)-3,4-dihydro-2H, 15′H-spiro[naphthalene-1,22′-[20]oxa[13]thia[1,14]diazatetracyclo[14.7.2.0-3,6˜.0˜19,24˜]pentacosa[8,16,18,24]tetraen]-15′-one 13′,13′-dioxide], the pIC50 under setting [3] was 7.12. In the case of `CCO[C@]1(CN2CCN(C(C)C)[C@H](C)C2)/C=C/C[C@H](C)[C@@H](C)S(=O)(=O)NC(=O)c2ccc3c(c2)N(C[C@@H]2CC[C@H]21)C[C@@]1(CCCc2cc(Cl)ccc21)CO3` [Example 9, (1 S,3′R,6′R,7′R,8′E,11′S, 12′R)-6-CHLORO-7′-ETHOXY-11′,12′-DIMETHYL-7′-(((3R)-3-METHYL-4-(1-METHYLETHYL)-1-PIPERAZINYL)METHYL)-3,4-DIHYDRO-2H, 15′H-SPIRO[NAPHTHALENE-1,22′-[20]OXA[13]THIA[1,14]DIAZATETRACYCLO[14.7.2.0-3,6˜.0˜19,24˜]PENT ACOSA[8,16,18,24]TETRAEN]-15′-ONE 13′,13′-DIOXIDE], under setting [1], the pIC50 was 7.30.

For `COCCN(CCOC)C1CCN(C[C@]2(OC)/C=C/C[C@H](C)[C@@H](C)S(=O)(=O)NC(=O)c3ccc4c(c3)N(C[C@@H]3CC[C@H]32)C[C@@]2(CCCc3cc(Cl)ccc32)CO4)CC1` [Example 308, (1S,3′R,6′R,7′S,8′E,11′S,12′R)-7′-((4-(bis(2-methoxyethyl)amino)-1-piperidinyl)methyl)-6-chloro-7′-methoxy-11′,12′-dimethyl-3,4-dihydro-2H,15′H-spiro[naphthalene-1,22′-[20]oxa[13]thia[1,14]diazatetracyclo [14.7.2.0~3,6~.0~19,24~]pentacosa[8,16,18,24]tetraen]-15′-one 13′,13′-dioxide], the pIC50 under setting [3] is 7.15. Turning to `CO[C@@]1(CN2CCN3CCN(C(C)=O)C[C@@H]3C2)/C=C/C[C@H](C)[C@@H](C)S(=O)(=O)NC(=O)c2ccc3c(c2)N(C[C@@H]2CC[C@H]21)C[C@@]1(CCCc2cc(Cl)ccc21)CO3` (single isomer, unassigned) [Example 226], under setting [1], the pIC50 is 7.31.

With `CO[C@@]1(CN2CCN(CC(CO)CO)CC2)/C=C/C[C@H](C)[C@@H](C)S(=O)(=O)NC(=O)c2ccc3c(c2)N(C[C@@H]2CC[C@H]21)C[C@@]1(CCCc2cc(Cl)ccc21)CO3` [Example 310, (1S,3′R,6′R,7′S,8′E,11′S,12′R)-6-chloro-7′-((4-(3-hydroxy-2-(hydroxymethyl)propyl)-1-piperazinyl)methyl)-7′-methoxy-11′,12′-dimethyl-3,4-dihydro-2H,15′H-spiro[naphthalene-1,22′-[20]oxa[13]thia[1,14]diazatetracyclo [14.7.2.0~3,6~.0~19,24~]pentacosa[8,16,18,24]tetraen]-15′-one 13′,13′-dioxide], the pIC50 under setting [3] is 6.29. `COC(=O)CNC(=O)C[C@]1(OC)/C=C/C[C@H](C)[C@@H](C)S(=O)(=O)NC(=O)c2ccc3c(c2)N(C[C@@H]2CC[C@H]21)C[C@@]1(CCCc2cc(Cl)ccc21)CO3` [Example 100550, methyl N-(((1S,3′R,6′R,7′S,8′E,11′S,12′R)-6-chloro-7′-methoxy-11′,12′-dimethyl-13′,13′-dioxido-15′-oxo-3,4-dihydro-2H-spiro[naphthalene-1,22′-[20]oxa[13]thia[1,14]diazatetracyclo [14.7.2.0~3,6~.0~19,24~]pentacosa[8,16,18,24]tetraen]-7′-yl)acetyl)glycinate]: under setting [2], the pIC50 was 5.16. As for `CO[C@@]1(CN2CCN3CCCC[C@@H]3C2)/C=C/C[C@H](C)[C@@H](C)S(=O)(=O)NC(=O)c2ccc3c(c2)N(C[C@@H]2CC[C@H]21)C[C@@]1(CCCc2cc(Cl)ccc21)CO3` [Example 197, (1S,3′R,6′R,7′S,8′E,11′S,12′R)-6-chloro-7′-methoxy-11′,12′-dimethyl-7′-((9aR)-octahydro-2H-pyrido[1,2-a]pyrazin-2-ylmethyl)-3,4-dihydro-2H,15′H-spiro[naphthalene-1,22′-[20]oxa[13]thia[1,14]diazatetracyclo [14.7.2.0~3,6~.0~19,24~]pentacosa[8,16,18,24]tetraen]-15′-one 13′,13′-dioxide], under setting [3], the pIC50 is 6.89. For `CO[C@]1(CN2CCN(CC(F)(F)F)CC2)/C=C/C[C@H](C)[C@@H](C)S(=O)(=O)NC(=O)c2ccc3c(c2)N(C[C@@H]2CC[C@H]21)C[C@@]1(CCCc2cc(Cl)ccc21)CO3` [Example 93, (1S,3′R,6′R,7′R,8′E,11′S,12′R)-6-chloro-7′-methoxy-11′,12′-dimethyl-7′-((4-(2,2,2-trifluoroethyl)-1-piperazinyl)methyl)-3,4-dihydro-2H,15′H-spiro[naphthalene-1,22′-[20]oxa[13]thia[1,14]diazatetracyclo [14.7.2.0~3,6~.0~19,24~]pentacosa[8,16,18,24]tetraen]-15′-one 13′,13′-dioxide], the pIC50 under setting [3] was 6.03.

With `CO[C@@]1(CN2CCN3CCN(S(C)(=O)=O)C[C@@H]3C2)/C=C/C[C@H](C)[C@@H](C)S(=O)(=O)NC(=O)c2ccc3c(c2)N(C[C@@H]2CC[C@H]21)C[C@@]1(CCCc2cc(Cl)ccc21)CO3` [Example 228], under setting [3], the pIC50 is 7.03.

For the molecule `C[C@@H]1[C@@H](C)CCC[C@@](O)(CN2CCN3CCOC[C@@H]3C2)[C@@H]2CC[C@H]2CN2C[C@@]3(CCCc4cc(Cl)ccc43)COc3ccc(cc32)C(=O)NS1(=O)=O` [Example 7, (1S,3′R,6′R,7′S,11′S,12′R)-6-CHLORO-7′-((9AS)-HEXAHYDROPYRAZINO [2,1-C][1,4]OXAZIN-8(1H)-YLMETHYL)-7′-HYDROXY-11′,12′-DIMETHYL-3,4-DIHYDRO-2H, 15′H-SPIRO[NAPHTHALENE-1,22′-[20]OXA[13]THIA[1,14]DIAZATETRACYCLO[14.7.2.0-3,6˜.0˜19,24˜]PENT ACOSA[16,18,24]TRIEN]-15′-ONE 13′,13′-DIOXIDE], the pIC50 under setting [1] is 7.60.

Consider `CO[C@]1(CN2CCN3CCN(C(C)=O)C[C@@H]3C2)/C=C/C[C@H](C)[C@@H](C)S(=O)(=O)NC(=O)c2ccc3c(c2)N(C[C@@H]2CC[C@H]21)C[C@@]1(CCCc2cc(Cl)ccc21)CO3` [Example 218], for which the pIC50 under setting [1] is 7.04.
